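48-hour exposure; five concentrations; linearly interpolated endpoints. Here, GI50 denotes the concentration required for 50% inhibition of growth.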 Calls of active or inactive are those of the source. Cut-off read from the data, not from the text of the source: active = GI50 up to about 1.1 µM and inactive = higher.
Columns and labels:
Experiment in all cases: DTP human tumour cell line panel, 48 h
[1] = test system: M14
[2] = test system: U-251
[3] = test system: MOLT-4
[4] = test system: NCI-H226
[5] = test system: 786-0
[6] = test system: UO-31
[7] = test system: ACHN
[8] = test system: SNB-19
[9] = test system: HCC 2998
[10] = test system: KM12
[11] = test system: K562
[12] = test system: SW-620
[13] = test system: LOX IMVI
[14] = test system: SN12C
[15] = test system: SNB-78
[16] = test system: DMS-114
[17] = test system: OVCAR-5
[18] = test system: OVCAR-3
[19] = test system: SK-MEL-5
[20] = test system: HCT-15
[21] = test system: NCI-H460
[22] = test system: Malme-3M
[23] = test system: KM-20L2
[24] = test system: UACC-62
[25] = test system: A549
[26] = test system: SF-539
[27] = test system: LXFL 529
[28] = test system: OVCAR-8
[29] = test system: SK-OV-3
[30] = test system: UACC-257
[31] = test system: DLD-1
[32] = test system: COLO 205
[33] = test system: SK-MEL-2
[34] = test system: SNB-75
[35] = test system: IGROV-1
[36] = test system: SF-268
[37] = test system: CCRF-CEM
[38] = test system: NCI-H23
[39] = test system: RPMI-8226
[40] = test system: EKVX
[41] = test system: XF498
[42] = test system: HOP-62
[43] = test system: OVCAR-4
[44] = test system: SK-MEL-28
[45] = test system: HCT-116
[46] = test system: SR
[47] = test system: DMS-273
[48] = test system: SF-295
[49] = test system: CAKI-1
[50] = test system: NCI-H522
[51] = test system: M19-MEL
[52] = test system: HT-29
[53] = test system: MDA-MB-435
[54] = test system: A498
[55] = test system: HOP-18
[56] = test system: MDA-N
[57] = test system: Hs-578T
[58] = test system: NCI/ADR-RES
[59] = test system: HOP-92
[60] = test system: TK-10
[61] = test system: MDA-MB-231
[62] = test system: RXF 393
[63] = test system: HL-60
[64] = test system: BT-549
[65] = test system: PC-3

COc1cc2c(cc1OC)C(=O)C(C1=C(SC(=N)N)C(=O)c3cc(OC)c(OC)cc31)C2 (stereo not given)
GI50 [1]: > 100000 nM (inactive)
GI50 [2]: > 100000 nM (inactive)
GI50 [3]: > 100000 nM (inactive)
GI50 [4]: > 100000 nM (inactive)
GI50 [5]: > 100000 nM (inactive)
GI50 [6]: > 100000 nM (inactive)
GI50 [7]: > 100000 nM (inactive)
GI50 [8]: > 100000 nM (inactive)
GI50 [9]: > 100000 nM (inactive)
GI50 [10]: > 100000 nM (inactive)
GI50 [11]: > 100000 nM (inactive)
GI50 [12]: > 100000 nM (inactive)
GI50 [13]: > 100000 nM (inactive)
GI50 [14]: > 100000 nM (inactive)
GI50 [15]: > 100000 nM (inactive)
GI50 [16]: > 100000 nM (inactive)
GI50 [17]: > 100000 nM (inactive)
GI50 [18]: > 100000 nM (inactive)
GI50 [19]: > 100000 nM (inactive)
GI50 [20]: > 100000 nM
GI50 [21]: > 100000 nM (inactive)
GI50 [22]: > 100000 nM (inactive)
GI50 [23]: > 100000 nM (inactive)
GI50 [24]: > 100000 nM (inactive)
GI50 [25]: > 100000 nM (inactive)
GI50 [26]: > 100000 nM (inactive)
GI50 [27]: > 100000 nM (inactive)
GI50 [28]: > 100000 nM (inactive)
GI50 [29]: > 100000 nM (inactive)
GI50 [30]: > 100000 nM (inactive)
GI50 [31]: > 100000 nM (inactive)
GI50 [32]: > 100000 nM (inactive)
GI50 [33]: > 100000 nM (inactive)
GI50 [34]: > 100000 nM (inactive)
GI50 [35]: > 100000 nM (inactive)
GI50 [36]: > 100000 nM (inactive)
GI50 [37]: > 100000 nM (inactive)
GI50 [38]: > 100000 nM (inactive)
GI50 [39]: > 100000 nM (inactive)
GI50 [40]: > 100000 nM (inactive)
GI50 [41]: > 100000 nM (inactive)
GI50 [42]: 71400 nM (inactive)
GI50 [43]: 78900 nM (inactive)
GI50 [44]: > 100000 nM (inactive)
GI50 [45]: > 100000 nM (inactive)
GI50 [46]: > 100000 nM (inactive)
GI50 [47]: > 100000 nM (inactive)
GI50 [48]: > 100000 nM (inactive)
GI50 [49]: > 100000 nM (inactive)
GI50 [50]: > 100000 nM (inactive)
GI50 [51]: > 100000 nM (inactive)
GI50 [52]: > 100000 nM (inactive)

O=C1c2ccsc2C(=O)c2sc(CO)cc21
GI50 [1]: < 12.3 nM (active)
GI50 [2]: 156 nM (active)
GI50 [3]: 524 nM (active)
GI50 [4]: 243 nM (active)
GI50 [5]: 385 nM (active)
GI50 [6]: 134 nM (active)
GI50 [7]: 68.1 nM (active)
GI50 [53]: < 13.2 nM (active)
GI50 [8]: 92.9 nM (active)
GI50 [9]: 3520 nM (inactive)
GI50 [10]: 1790 nM (inactive)
GI50 [11]: 237 nM (active)
GI50 [12]: 56.4 nM (active)
GI50 [13]: < 17.6 nM (active)
GI50 [54]: 331 nM (active)
GI50 [14]: 38.6 nM (active)
GI50 [15]: 322 nM (active)
GI50 [17]: 1430 nM (inactive)
GI50 [55]: 34.9 nM (active)
GI50 [18]: 1590 nM (inactive)
GI50 [56]: < 13.3 nM (active)
GI50 [19]: < 11.8 nM (active)
GI50 [20]: 42.1 nM
GI50 [21]: 1470 nM (inactive)
GI50 [22]: 610 nM (active)
GI50 [23]: 182 nM (active)
GI50 [24]: 55.3 nM (active)
GI50 [25]: 50.7 nM (active)
GI50 [26]: 46.9 nM (active)
GI50 [27]: 161 nM (active)
GI50 [28]: 113 nM (active)
GI50 [29]: 1110 nM (active)
GI50 [30]: 45.6 nM (active)
GI50 [31]: 176 nM (active)
GI50 [32]: 817 nM (active)
GI50 [33]: 92.9 nM (active)
GI50 [34]: 56.4 nM (active)
GI50 [35]: 627 nM (active)
GI50 [36]: 1110 nM (active)
GI50 [57]: 61.1 nM (active)
GI50 [37]: 207 nM (active)
GI50 [58]: 84.5 nM (active)
GI50 [38]: 32.2 nM (active)
GI50 [39]: 220 nM (active)
GI50 [40]: 1650 nM (inactive)
GI50 [41]: 352 nM (active)
GI50 [59]: 333 nM (active)
GI50 [42]: 184 nM (active)
GI50 [43]: 167 nM (active)
GI50 [44]: 30.7 nM (active)
GI50 [60]: 5930 nM (inactive)
GI50 [61]: 159 nM (active)
GI50 [45]: 110 nM (active)
GI50 [46]: 98.4 nM (active)
GI50 [62]: 1090 nM (active)
GI50 [47]: 32.7 nM (active)
GI50 [48]: 628 nM (active)
GI50 [49]: 6470 nM (inactive)
GI50 [50]: 106 nM (active)
GI50 [63]: 656 nM (active)
GI50 [64]: 18.2 nM (active)
GI50 [65]: 126 nM (active)
GI50 [52]: 219 nM (active)

From ChEMBL document CHEMBL1201862, “PubChem BioAssay data set” (2004)
